This data set can be described thus: RP, Waters SunFire C18, 50 × 4.6 mm, 3.5 µm, 0.5 mL/min, estimated dead time 1.1 min; A: water + 0.1% formic acid; B: acetonitrile + 0.1% formic acid; gradient (min/%B) 0/5 7/100 8/100. Particulars: stereoisomer not certain.

For `COC1=C(O)c2cc3oc(C(C)=O)c(O)c3c(O)c2C(=O)C1=O`, the LC retention time is 4.27 min.
In the case of `Cc1cc(O)c(C=O)c2c1C(=O)Oc1c(CO)c(O)c(C(=O)O)c(C)c1O2`, the LC retention time is 5.62 min.
The same measure for `COc1cc(O)c2c(c1)C(=O)c1cc(CO)cc(O)c1C2=O`: 5.36 min; for `CC1CCCCCCCCCCC(O)C(O)C(O)C=CC(=O)O1` (stereo not given): 5.65 min; for `Cc1cc(O)c(C)c(O)c1`: 3.25 min.
Turning to `COC(=O)C12Oc3ccc(-c4ccc5c(c4O)C(O)=C4C(=O)CC(C)C(O)C4(C(=O)OC)O5)c(O)c3C(O)=C1C(=O)CC(C)C2O` (stereo not given), the LC retention time was 6 min.
As for `COc1cc(C)c(C(=O)Oc2cc(C)c(C(=O)O)c(O)c2C)c(O)c1C`, the LC retention time is 7.26 min.
As to `COC(=O)c1c(C)cc(OC(=O)c2c(C)cc(OC(=O)c3c(C)cc(OC)cc3O)cc2O)cc1O`, the LC retention time was 7.74 min.
Regarding `Cc1cc(OC(=O)c2c(C)cc(O)cc2O)cc(O)c1C(=O)O`, the LC retention time was 5.3 min.
As for `Cc1cc(O)c(C=O)c(O)c1`, the LC retention time is 4.33 min.
On to `COC(=O)c1c(OC)cc2oc3c(C(=O)O)c(C)cc(OC)c3c2c1C`, for which the LC retention time was 5.63 min.
As for `CCCc1cc(OC)cc(O)c1C(=O)Oc1c(OC)cc(CCC)c(C(=O)O)c1O`, the LC retention time is 7.83 min.
`Cc1cc(O)cc(O)c1C(=O)Oc1cc(C)c(C(=O)Oc2c(O)cc(O)c(C(=O)O)c2C)c(O)c1`: the LC retention time is 5.63 min.
Regarding `CC(=O)OCc1c(O)c(C(=O)O)c(C)c2c1OC(=O)c1c(C)cc(O)c(C=O)c1O2`, the LC retention time was 7.28 min.
For the molecule `COC1=CC(=O)C(=O)c2cc3oc(C)cc(=O)c3c(OC)c21`, the LC retention time was 4.03 min.
The value for `COc1cc(C)c(C(=O)Oc2c(C)c(C(=O)O)c(O)c(C=O)c2O)c(O)c1C(=O)O` was 5.8 min; that for `CCCc1cc(O)cc(O)c1C(=O)O` was 4.15 min.
In the case of `Cc1cc(=O)c2c(O)c3c(cc2o1)C(=O)C(=O)C=C3O`, the LC retention time is 3.87 min.
Consider `COC(=O)c1c(C)cc(O)c(C=O)c1O`, for which the LC retention time is 5.48 min.
Consider `CCCCCC(=O)Cc1cc(OC)c(O)c2c1C(=O)Oc1cc(O)c(C(=O)O)c(CCCCC)c1O2`, for which the LC retention time was 6.95 min.
Consider `O=C(NC(Cc1ccccc1)C(=O)O)C(=C1OC(=O)C(c2ccccc2)=C1O)c1ccccc1` (stereo not given), for which the LC retention time is 7.27 min.
`CC(C)CC(NC(=O)c1ccccc1)C(=O)OCC(Cc1ccccc1)NC(=O)c1ccccc1` (stereo not given): the LC retention time is 6.82 min.
The value for `CCCc1cc(OC(=O)c2c(O)cc(OC)cc2CCC)cc(O)c1C(=O)O` was 7.33 min; that for `CC1CCC2(C(=O)O)CCC3(C)C(=CCC4C5(C)CCC(O)C(C)(C)C5CCC43C)C2C1C` (stereo not given) was 7.89 min.
In the case of `CCCCCC(=O)Cc1cc(OC)cc(O)c1C(=O)Oc1cc(CCCCC)c(C(=O)O)c(OC)c1`, the LC retention time was 7.1 min.
For `COc1cc(C)c2c(=O)c3c(O)cc(OC)cc3oc2c1`, the LC retention time was 6.94 min.
Regarding `COc1cc(O)cc(C)c1C(=O)Oc1cc(C)c(C(=O)Oc2cc(C)c(C(=O)O)c(O)c2)c(O)c1`, the LC retention time is 6.17 min.
In the case of `CCCCCC1=CC(=O)C=C(OC)C12C(=O)Oc1cc(O)c(C(=O)O)c(CCCCC)c12` (stereo not given), the LC retention time is 7.48 min.
Turning to `COCc1c(O)c(C(=O)O)c(C)c2c1OC(=O)c1c(C)cc(O)c(C=O)c1O2`, the LC retention time is 5.99 min.
Take `COc1cc(CCC(C(=O)[O-])[N+](C)(C)C)cc(OC)c1O` (stereo not given): the LC retention time is 6.6 min.
As to `COc1cc(C)c(C(=O)Oc2c(C)cc(O)c(C=O)c2O)c(O)c1C(=O)O`, the LC retention time is 5.7 min.
In the case of `CC(=O)OCC1OC(Oc2c(C)c(O)c3c(=O)cc(C)oc3c2C)C(O)C(O)C1O` (stereo not given), the LC retention time is 4.2 min.
As for `Cc1cc(O)c2c(c1)oc1cc(O)cc(C)c12`, the LC retention time is 7.4 min.
As to `Cc1cc(=O)c2c(O)c(C)c(O)cc2o1`, the LC retention time was 4.52 min.
Consider `CCCCCc1cc(OC)cc(O)c1C(=O)Oc1cc(O)c(C(=O)O)c(CCC)c1`, for which the LC retention time is 7.47 min.
On to `Cc1cc(O)cc2c1C(=O)Oc1cc3c(c(O)c1O2)C(=O)OC3`, for which the LC retention time is 4.58 min.
The value for `COc1cc(OC(=O)c2c(C)cc(O)cc2O)cc(C)c1C(=O)Oc1cc(C)c(C(=O)O)c(O)c1` was 6.2 min; that for `CC(=O)C1=C(O)C=C2Oc3c(C(C)=O)c(O)c(C)c(O)c3C2(C)C1=O` (stereo not given) was 7.27 min.
The value for `CCCCCC(=O)Cc1cc(O)cc(O)c1C(=O)Oc1cc(O)c(C(=O)O)c(CCCCC)c1` was 6.74 min; that for `COc1cc(C)c(C(=O)Oc2cc(C)c(C(=O)O)c(O)c2C)c(OC)c1C` was 7.09 min.
For the molecule `COc1cc(C)c(C(=O)Oc2cc(C)c(C(=O)O)c(O)c2)c(O)c1`, the LC retention time is 6 min.
For the molecule `CCCCCc1cc(O)cc(O)c1C(=O)O`, the LC retention time was 5.24 min.
The value for `CCCCCCCCCCCCCCC(C(=O)OC)C(CC(=O)O)C(=O)O` (stereo not given) was 8 min; that for `COC(=O)C(Cc1ccccc1)NC(=O)C(=C1OC(=O)C(c2ccccc2)=C1O)c1ccccc1` (stereo not given) was 7.65 min.
The same measure for `COc1cc(OC)c2c(=O)cc(C)oc2c1C`: 4.51 min.
Turning to `CCOCc1c(O)c(C(=O)O)c(C)c2c1OC(=O)c1c(C)cc(O)c(C=O)c1O2`, the LC retention time is 7.27 min.
Regarding `Cc1cc(O)c2c(oc3cc(O)c4c(c32)COC4=O)c1C(=O)O`, the LC retention time was 3.95 min.
Regarding `CCCCCc1cc2cc(O)cc(O)c2c(=O)o1`, the LC retention time is 6.08 min.
The value for `COC(=O)C(CC(C)C)NC(=O)C(=C1OC(=O)C(c2ccccc2)=C1O)c1ccccc1` (stereo not given) was 7.82 min; that for `OCC(O)C(O)CO` (stereo not given) was 4.05 min; that for `Cc1cc(O)c(C)c2c1C(=O)Oc1c(C)c(O)c(C(=O)O)c(C)c1O2` was 5.63 min.
`COc1cc(C)c2c(c1C)Oc1c(cc(O)c(C(=O)O)c1C)OC2=O`: the LC retention time is 6.23 min.
Take `Cc1cc(O)c2c(c1)C(=O)c1c(c(O)cc(O)c1-c1c(C)cc(O)c3c1C(=O)c1cc(O)cc(O)c1C3=O)C2=O`: the LC retention time was 6.58 min.
For `COc1cc2oc(C)cc(=O)c2c(O)c1COC(=O)C=C(C)CC(=O)O`, the LC retention time was 5.06 min.
On to `Cc1cc(O)c2c(c1)C(=O)c1c(c(O)cc(O)c1-c1c(O)cc(O)c3c1C(=O)c1cc(C)cc(O)c1C3=O)C2=O`, for which the LC retention time was 6.57 min.
The same measure for `O=C(O)c1cc(O)c2c(c1)C(=O)c1cc(O)cc(O)c1C2=O`: 5.06 min; for `CCCCCc1cc(OC(=O)c2c(CCCCC)cc(O)cc2OC)cc(OC)c1C(=O)O`: 6.6 min; for `C=C1C(=O)OC(CCCCCCCCCCCCC)C1C(=O)O` (stereo not given): 7.88 min.
For the molecule `COC(=O)C(=C1OC(=O)C(c2ccc(OC)cc2)=C1O)c1ccccc1`, the LC retention time was 6.71 min.
Turning to `CCCCCC(=O)Cc1c(Oc2cc(OC)cc3cc(CCCCC)oc(=O)c23)c(O)cc(O)c1C(=O)O`, the LC retention time is 7.09 min.
The same measure for `CC(=O)OCC1OC(Oc2cc(O)c3c(=O)cc(C)oc3c2C)C(OC(C)=O)C(OC(C)=O)C1O` (stereo not given): 5.4 min; for `CC(=O)OC1C(C)C(C)OC2(C(C)C3OC(=O)C2(C)C(=O)C3C)C1C` (stereo not given): 5.84 min.
Turning to `O=C1c2oc3cc(O)c(O)cc3c2C(=O)c2oc3cc(O)c(O)cc3c21`, the LC retention time is 4.52 min.
The same measure for `Cc1cc(O)c(C=O)c2c1C(=O)Oc1c(CO)c(O)c3c(c1O2)C(O)OC3=O` (stereo not given): 4.51 min; for `CC(=O)OCC1OC(Oc2cc(O)c3c(=O)cc(C)oc3c2C)C(OC(C)=O)C(OC(C)=O)C1OC(C)=O` (stereo not given): 5.9 min.

The record behind these values is the RepoRT retention time repository (doi:10.1038/s41597-019-0305-1).
